This is an account of results in ChEMBL document CHEMBL4052697, “Chimeric analogs of human β-defensin 1 and θ-defensin disrupt pre-established bacterial biofilms” (2017).

The structures appear in SMILES notation. ≈ marks a conversion by molar mass, not a printed value. Calls of active or inactive are those of the source. The calls are words filed in the database; no cut-off is given here. Positions of bridges follow the written chain, without caps; N, C: chain ends. Non-standard residues stand in square brackets, D forms with d. Residues, ends and D or L forms follow the SMILES beside them.

Holding throughout (assay type): functional
Test [1] deals with Staphylococcus aureus. The test is described as follows: Antibiofilm activity against pre-established 36 hrs old bacterial biofilms of Staphylococcus aureus NCTC 8530 incubated for 4 hrs by XTT assay.
In test [2] the test system is Escherichia coli. In words: Bactericidal activity against Escherichia coli MG1655 planktonic forms.
Test [3] relates to Staphylococcus aureus. In words: Bactericidal activity against Staphylococcus aureus NCTC 8530 planktonic forms.
The subject of test [4] is Staphylococcus aureus. The test is described as follows: Antibiofilm activity against pre-established 36 hrs old bacterial biofilms of Staphylococcus aureus NCTC 8530 assessed as reduction in number of viable bacterial cells incubated for 4 hrs by XTT assay.
In test [5] the test system is Escherichia coli. In words: Antibiofilm activity against pre-established 36 hrs old bacterial biofilms of Escherichia coli MG1655 incubated for 4 hrs Antibiofilm activity against pre-established 36 hrs old bacterial biofilms of Escherichia coli MG1655 incubated for 4 hrs by LIVE/DEAD BacLight staining based confocal microscopy.
Test [6] relates to Staphylococcus aureus. The test is described as follows: Antibiofilm activity against pre-established 36 hrs old bacterial biofilms of Staphylococcus aureus NCTC 8530 incubated for 4 hrs by […] LIVE/DEAD BacLight staining based confocal microscopy.
In test [7] the test system is Escherichia coli. The test is described as follows: Antibiofilm activity against pre-established 36 hrs old bacterial biofilms of Escherichia coli MG1655 incubated for 4 hrs by XTT assay.

As for `CC[C@@H](C)[C@H]1NC(=O)[C@H](CCCCN)NC(=O)[C@H]([C@@H](C)O)NC(=O)[C@H](Cc2ccccc2)NC(=O)[C@@H]([C@H](C)CC)NC(=O)[C@@H]2CCCN2C(=O)[C@@H](NC(=O)[C@H](C)N)CSSC[C@@H](C(=O)N[C@@H](CCCNC(=N)N)C(=O)O)NC(=O)[C@H](CCCCN)NC(=O)[C@H](C)NC(=O)[C@@H](CCCNC(=N)N)NC(=O)CNC(=O)[C@@H](CCCNC(=N)N)NC(=O)[C@H](Cc2ccc(O)cc2)NC(=O)[C@H]([C@@H](C)O)NC(=O)CNC(=O)[C@H](CCC(N)=O)NC1=O` (H-ACP[dI]FTK[dI]QGTY[dR]G[dR]AKCR-OH; disulfide 2-18), in test [1], the MBEC entry was “inactive”. The MBC in test [2] and in test [3] was 5 µM (≈ 10.8 µg/mL) in each case. Besides, the MBEC entry in test [4] is “Active”.

`CC[C@H](C)[C@@H]1NC(=O)[C@H](CCCCN)NC(=O)[C@H]([C@@H](C)O)NC(=O)[C@H](Cc2ccccc2)NC(=O)[C@H]([C@@H](C)CC)NC(=O)[C@@H]2CCCN2C(=O)[C@@H](NC(=O)[C@H](C)N)CSSC[C@@H](C(=O)O)NC(=O)[C@H]([C@@H](C)CC)NC(=O)[C@@H](CCCNC(=N)N)NC(=O)[C@H](CCCNC(=N)N)NC(=O)CNC(=O)[C@@H]([C@@H](C)CC)NC(=O)[C@H](CCCNC(=N)N)NC(=O)[C@H](CCCCN)NC(=O)[C@H](C)NC(=O)[C@H](CCCCN)NC(=O)CNC(=O)[C@H](CCCNC(=N)N)NC(=O)[C@H](Cc2ccc(O)cc2)NC(=O)[C@H]([C@@H](C)O)NC(=O)CNC(=O)[C@H](CCC(N)=O)NC1=O` displayed an MBEC in test [1] of 150 µM. The MBC in test [2] was 1 µM (≈ 2.74 µg/mL); in test [3] it was 2 µM (≈ 5.47 µg/mL). Besides, the outcome in test [5] and in test [6] was Active.

Regarding `CC[C@H](C)[C@@H]1NC(=O)[C@H](CCCCN)NC(=O)[C@H]([C@@H](C)O)NC(=O)[C@H](Cc2ccccc2)NC(=O)[C@H]([C@@H](C)CC)NC(=O)[C@@H]2CCCN2C(=O)[C@@H](NC(=O)[C@H](C)N)CSSC[C@@H](C(=O)N[C@@H](CCCNC(=N)N)C(=O)O)NC(=O)[C@H](CCCCN)NC(=O)[C@H](C)NC(=O)[C@H](CCCNC(=N)N)NC(=O)CNC(=O)[C@H](CCCNC(=N)N)NC(=O)[C@H](Cc2ccc(O)cc2)NC(=O)[C@H]([C@@H](C)O)NC(=O)CNC(=O)[C@H](CCC(N)=O)NC1=O` (H-ACPIFTKIQGTYRGRAKCR-OH; disulfide 2-18), the MBC in test [2] and in test [3] was 5 µM (≈ 10.8 µg/mL) in each case. In addition, in test [4], the MBEC result was “Active”.

As for `CC[C@@H](C)[C@H]1NC(=O)[C@H]2CCCN2C(=O)[C@H](NC(=O)[C@@H](C)N)CSSC[C@H](C(=O)O)NC(=O)[C@@H]([C@H](C)CC)NC(=O)[C@@H](CCCNC(=N)N)NC(=O)[C@@H](CCCNC(=N)N)NC(=O)CNC(=O)[C@@H]([C@H](C)CC)NC(=O)[C@@H](CCCNC(=N)N)NC(=O)[C@@H](CCCCN)NC(=O)[C@@H](C)NC(=O)[C@@H](CCCCN)NC(=O)CNC(=O)[C@@H](CCCNC(=N)N)NC(=O)[C@@H](Cc2ccc(O)cc2)NC(=O)[C@@H]([C@H](C)O)NC(=O)CNC(=O)[C@@H](CCC(N)=O)NC(=O)[C@@H]([C@H](C)CC)NC(=O)[C@@H](CCCCN)NC(=O)[C@@H]([C@H](C)O)NC(=O)[C@@H](Cc2ccccc2)NC1=O`, the MBEC in test [1] and in test [7] was 200 µM in each case. In addition, the MBC came to 1 µM (≈ 2.74 µg/mL) in test [2] and 2 µM (≈ 5.47 µg/mL) in test [3]. In addition, the outcome in test [5] and in test [6] was Active.
